These results are taken from PMC7920274, “Targeting of CXCR4 by the Naturally Occurring CXCR4 Antagonist EPI-X4 in Waldenström’s Macroglobulinemia” (Cancers, 2021).

The subject of data set [1] is CXCR4 mutant-expressing cells. Conditions: cited from earlier work.
Data set [2] relates to mitochondrial cytotoxicity. Conditions: cited from earlier work.
The subject of data set [3] is CXCR7. More on the design: method as in PMID 25921529. The note with it: cited from earlier work.
For data set [4], the system named is WM cells. Kind of data set: Transwell migration of WM cells, general statement. In kind it is cell-based. Conditions: 10 nM CXCL12, 2 h, 37 °C; non-specific migration 3,4%; CellTiter-Glo. Here is the method:
10 nM CXCL12 was supplemented to the lower chamber. After 2 h incubation at 37 °C, 5% CO2, cells that had migrated to the lower compartment were analyzed using the CellTiter-Glo Luminescent Cell Viability Assay (Promega, Madison, WI, USA) according to the manufacturer’s instructions. Percentage of specific migration was calculated using the following formula: % migration = ((specific migration-unspecific migration)/total cells) × 100. The average of absolute percentage of non-specific migration was very low in some experiments with 3,4% compared to an average of 81% CXCL12 induced migration.
For orientation: Cellular ATP, detected with luciferase, serves as a proxy for viable cell number.

In data set [5] the test system is ERK1 (Tyr204)/ERK2 (Tyr187) phosphorylation, CXCR4 transduced BCWM.1 cells. Kind of data set: ERK phosphorylation by flow cytometry, CXCR4-transduced BCWM.1 cells. In kind it is cell-based. Conditions: wild-type or mutated CXCR4 or empty vector control; Figure S5B. Here is the method: Cells (100,000) were seeded in 100 µL starvation medium (RPMI, 1% FCS) and starved for 2 h. 5 µL compound in PBS was added and cells were further incubated for 15 min. Afterwards, 5 µL CXCL12 (100 ng/mL final concentration on cells) was added for 2 min before the reaction was stopped by adding PFA and shifting to 4 °C. After 15 min, medium was removed by centrifugation and cells permeabilized by adding ice cold MetOH for 15 min. Cells were then washed and the first antibody was added (phospho-p44/42 MAPK (Erk1) (Tyr204)/(Erk2) (Tyr187) (D1H6G) mouse mAb (Cell Signaling, Danvers, Massachusetts, USA, #5726) and phospho-Akt (Ser473) (193H12) rabbit mAb (Cell Signaling, #4058)) for 2 h and stained with adequate secondary antibody afterwards. Cells were analyzed by flow cytometry with FACS Cytoflex (Beckman Coulter, Brea, CA, USA). For time-kinetic experiments, fold-stimulation was determined by MFI (stimulated)/MFI (unstimulated) for each time point. For inhibition experiments, MFI from unstimulated cells was subtracted from each point and signal of stimulated cells without inhibitor normalized to 100%.
For orientation: In flow cytometry, cells or beads pass a laser one at a time.

“Also recorded” adds a separate entry of the source.

With `c1cc(CN2CCCNCCNCCCNCC2)ccc1CN1CCCNCCNCCCNCC1` [AMD3100], the “Abrogation of CXCL12 rescue from ibrutinib-induced apoptosis” value in data set [1] was “the effect could be abrogated by adding plerixafor”. The Mitochondrial cytotoxicity result in data set [2] is recorded as “do not exert mitochondrial cytotoxicity, in contrast to AMD3100”. The “Interaction with CXCR7” value in data set [3] is “acts as an allosteric agonist of this receptor”.

As for CXCL12: chemokine ligand CXCL12, the “CXCL12 induced migration, average” value in data set [4] worked out at 81%. Also, in data set [5], the “CXCL12 effect on phosphorylation / MAPK signaling” value is “increased upon CXCL12 stimulation; also recorded: increases MAPK signaling in cells expressing CXCR4 wildtype constitutively to the same extent as in CXCR4-mutant cells”.
